ChEMBL document CHEMBL5696442, “Discovery of type II inhibitors of TGFβ-activated kinase 1 (TAK1) and mitogen-activated protein kinase kinase kinase kinase 2 (MAP4K2)” (J Med Chem, 2015)

Assays:
[1] = molecular target: 5'-AMP-activated protein kinase catalytic subunit alpha-1 (Homo sapiens) (UniProt Q13131); experiment: Inhibition of AMPKa1 Lys1 labeling site in human Huh-7 cell lysate at 1 uM by KiNativ Profiling analysis relative to control; assay type: subcellular
[2] = molecular target: Focal adhesion kinase 1 (Homo sapiens) (UniProt Q05397); experiment: Inhibition of FAK ACT labeling site in human Huh-7 cell lysate at 1 uM by KiNativ Profiling analysis relative to control; assay type: subcellular
Chain of Focal adhesion kinase 1 (Homo sapiens) (Q05397 2-1052 limits assumed): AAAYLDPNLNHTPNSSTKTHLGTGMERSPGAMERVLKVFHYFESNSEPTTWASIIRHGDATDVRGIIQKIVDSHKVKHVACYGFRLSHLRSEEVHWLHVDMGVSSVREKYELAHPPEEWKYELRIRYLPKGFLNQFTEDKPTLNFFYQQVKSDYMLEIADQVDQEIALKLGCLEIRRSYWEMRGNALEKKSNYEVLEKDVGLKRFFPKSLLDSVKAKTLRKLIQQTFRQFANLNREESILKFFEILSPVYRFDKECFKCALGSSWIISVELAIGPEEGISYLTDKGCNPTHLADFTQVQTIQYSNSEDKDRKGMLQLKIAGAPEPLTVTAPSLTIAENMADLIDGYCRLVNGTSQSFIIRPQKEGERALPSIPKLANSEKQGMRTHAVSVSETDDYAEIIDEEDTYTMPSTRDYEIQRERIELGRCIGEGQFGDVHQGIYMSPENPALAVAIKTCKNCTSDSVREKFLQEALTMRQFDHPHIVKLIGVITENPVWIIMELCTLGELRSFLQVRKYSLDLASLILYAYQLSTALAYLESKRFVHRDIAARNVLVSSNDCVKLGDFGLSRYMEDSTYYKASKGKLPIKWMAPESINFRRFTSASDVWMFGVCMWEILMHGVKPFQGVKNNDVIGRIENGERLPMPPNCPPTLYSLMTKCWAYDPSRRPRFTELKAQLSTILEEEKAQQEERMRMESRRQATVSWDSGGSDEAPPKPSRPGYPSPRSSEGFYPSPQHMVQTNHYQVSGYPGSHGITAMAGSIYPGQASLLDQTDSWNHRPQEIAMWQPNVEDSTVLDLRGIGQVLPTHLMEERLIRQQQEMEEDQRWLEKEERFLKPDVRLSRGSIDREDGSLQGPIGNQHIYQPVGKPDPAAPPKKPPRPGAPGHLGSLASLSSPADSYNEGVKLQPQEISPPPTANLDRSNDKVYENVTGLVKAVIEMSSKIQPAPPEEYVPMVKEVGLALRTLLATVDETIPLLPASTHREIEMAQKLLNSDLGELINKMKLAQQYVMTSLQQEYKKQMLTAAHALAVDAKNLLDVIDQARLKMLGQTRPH

[3] = molecular target: Cyclin-dependent kinase 18 (Homo sapiens) (UniProt Q07002); experiment: Inhibition of PCTAIRE3 Lys1 labeling site in human Huh-7 cells at 1 uM by KiNativ Profiling analysis relative to control; assay type: cell-based
Chain of Cyclin-dependent kinase 18 (Homo sapiens) (Q07002 whole entry): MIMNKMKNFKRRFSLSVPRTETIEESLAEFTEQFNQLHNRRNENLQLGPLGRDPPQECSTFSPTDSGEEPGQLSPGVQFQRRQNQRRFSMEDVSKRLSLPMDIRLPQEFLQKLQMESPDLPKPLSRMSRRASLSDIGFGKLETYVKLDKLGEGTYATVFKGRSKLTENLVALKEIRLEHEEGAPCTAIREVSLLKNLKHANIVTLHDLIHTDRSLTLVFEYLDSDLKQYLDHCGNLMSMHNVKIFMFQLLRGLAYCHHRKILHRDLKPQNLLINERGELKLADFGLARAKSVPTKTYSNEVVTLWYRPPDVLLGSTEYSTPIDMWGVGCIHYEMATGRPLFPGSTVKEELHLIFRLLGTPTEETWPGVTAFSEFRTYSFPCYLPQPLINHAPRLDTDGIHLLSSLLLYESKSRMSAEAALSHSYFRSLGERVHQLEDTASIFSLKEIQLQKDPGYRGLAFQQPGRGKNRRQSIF

[4] = molecular target: T1, Dual specificity mitogen-activated protein kinase kinase 6 (Homo sapiens) (UniProt P52564); experiment: Inhibition of MAP2K6 Lys2 labeling site in human Huh-7 cells at 1 uM by KiNativ Profiling analysis relative to control; assay type: cell-based
T1 sequence (whole entry): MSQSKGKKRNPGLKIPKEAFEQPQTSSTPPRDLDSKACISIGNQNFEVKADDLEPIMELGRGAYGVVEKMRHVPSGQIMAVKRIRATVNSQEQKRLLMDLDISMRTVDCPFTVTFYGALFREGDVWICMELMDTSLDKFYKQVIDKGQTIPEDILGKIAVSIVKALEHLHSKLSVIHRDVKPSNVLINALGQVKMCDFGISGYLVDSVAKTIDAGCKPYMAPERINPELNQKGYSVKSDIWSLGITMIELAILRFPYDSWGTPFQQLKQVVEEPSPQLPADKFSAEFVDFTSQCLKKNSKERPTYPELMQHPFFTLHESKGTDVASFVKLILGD

[5] = molecular target: Mitogen-activated protein kinase kinase kinase 20 (Homo sapiens, UniProt Q9NYL2); experiment: Inhibition of ZAK Lys1 labeling site in human A-375 cells at 5 uM by KiNativ Profiling analysis relative to control; assay type: cell-based
Chain of Mitogen-activated protein kinase kinase kinase 20 (Q9NYL2 2-800 limits assumed): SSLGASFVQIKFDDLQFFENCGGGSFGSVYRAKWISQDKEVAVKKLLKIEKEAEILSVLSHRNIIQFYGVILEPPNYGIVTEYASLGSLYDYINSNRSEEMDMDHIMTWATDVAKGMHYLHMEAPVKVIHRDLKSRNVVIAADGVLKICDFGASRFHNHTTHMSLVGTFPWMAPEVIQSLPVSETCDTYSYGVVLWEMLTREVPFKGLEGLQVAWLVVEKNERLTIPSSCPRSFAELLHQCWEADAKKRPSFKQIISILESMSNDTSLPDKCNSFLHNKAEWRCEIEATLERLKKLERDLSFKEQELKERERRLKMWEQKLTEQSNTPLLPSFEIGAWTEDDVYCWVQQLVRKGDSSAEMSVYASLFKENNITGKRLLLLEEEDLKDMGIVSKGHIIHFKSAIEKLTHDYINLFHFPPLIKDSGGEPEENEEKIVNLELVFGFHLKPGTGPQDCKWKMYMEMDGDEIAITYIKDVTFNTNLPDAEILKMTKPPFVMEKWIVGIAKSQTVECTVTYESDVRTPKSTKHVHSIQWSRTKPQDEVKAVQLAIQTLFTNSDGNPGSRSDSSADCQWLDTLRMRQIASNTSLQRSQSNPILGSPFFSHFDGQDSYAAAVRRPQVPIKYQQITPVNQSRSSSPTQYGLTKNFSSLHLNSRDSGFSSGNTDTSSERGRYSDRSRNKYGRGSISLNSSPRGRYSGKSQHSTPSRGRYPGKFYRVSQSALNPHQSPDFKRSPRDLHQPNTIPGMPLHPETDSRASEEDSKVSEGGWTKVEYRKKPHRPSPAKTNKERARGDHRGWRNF

[6] = molecular target: Cyclin-dependent kinase 11B (Homo sapiens) (UniProt P21127); experiment: Inhibition of CDK11 (unknown origin) at 10 uM by Ambit Kinomescan binding assay relative to control; values are per cent of control
[7] = molecular target: Rho-associated protein kinase (Homo sapiens) (UniProt O75116+Q13464); experiment: Inhibition of ROCK1/2 K2 labeling site in human Huh-7 cells at 1 uM by KiNativ Profiling analysis relative to control; assay type: cell-based
[8] = molecular target: T2, Mitogen-activated protein kinase kinase kinase 7 (Homo sapiens) (UniProt O43318); experiment: Inhibition of TAK1 Lys2 labeling site in human A-375 cells at 5 uM by KiNativ Profiling analysis relative to control; assay type: cell-based
T2 sequence (whole entry): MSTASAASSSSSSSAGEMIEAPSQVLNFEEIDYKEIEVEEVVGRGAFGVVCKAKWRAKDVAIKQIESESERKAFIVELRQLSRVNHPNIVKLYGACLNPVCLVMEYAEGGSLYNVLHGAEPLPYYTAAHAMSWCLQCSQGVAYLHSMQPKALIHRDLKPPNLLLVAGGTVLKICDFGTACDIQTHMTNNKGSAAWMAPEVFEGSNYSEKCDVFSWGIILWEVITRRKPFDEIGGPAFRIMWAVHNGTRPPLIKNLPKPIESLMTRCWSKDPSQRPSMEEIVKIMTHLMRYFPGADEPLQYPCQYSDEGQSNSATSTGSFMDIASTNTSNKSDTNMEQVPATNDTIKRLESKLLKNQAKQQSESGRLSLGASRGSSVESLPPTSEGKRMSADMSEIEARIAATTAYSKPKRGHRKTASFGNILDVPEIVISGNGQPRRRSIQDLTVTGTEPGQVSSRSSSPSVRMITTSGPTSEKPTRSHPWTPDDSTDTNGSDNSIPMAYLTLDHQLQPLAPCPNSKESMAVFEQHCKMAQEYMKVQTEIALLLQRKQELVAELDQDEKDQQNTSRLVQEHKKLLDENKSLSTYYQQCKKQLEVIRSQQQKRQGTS

MEF = experiment: Inhibition of IL-1alpha induced JNK1/2 phosphorylation level in mouse MEF cells preincubated for 1 hr followed by IL-1 alpha stimulation and measured after 30 mins by Western blot analysis; assay type: functional, cell-based; conditions: dose 0.01-10 µM
[9] = molecular target: Tyrosine-protein kinase SYK (Homo sapiens) (UniProt P43405); experiment: Inhibition of SYK (unknown origin) at 10 uM by Ambit Kinomescan binding assay relative to control; values are per cent of control
[10] = molecular target: Cyclin-dependent kinase 2 (Homo sapiens) (UniProt P24941); experiment: Inhibition of CDK2 Lys2 labeling site in human A-375 cells at 5 uM by KiNativ Profiling analysis relative to control; assay type: cell-based
[11] = molecular target: eIF-2-alpha kinase GCN2 (Homo sapiens) (UniProt Q9P2K8); experiment: Inhibition of GCN2 domain2 Lys2 labeling site in human A-375 cells at 0.05 uM by KiNativ Profiling analysis relative to control; assay type: cell-based
Chain of eIF-2-alpha kinase GCN2 (Homo sapiens) (Q9P2K8 whole entry, the tested form may be a part): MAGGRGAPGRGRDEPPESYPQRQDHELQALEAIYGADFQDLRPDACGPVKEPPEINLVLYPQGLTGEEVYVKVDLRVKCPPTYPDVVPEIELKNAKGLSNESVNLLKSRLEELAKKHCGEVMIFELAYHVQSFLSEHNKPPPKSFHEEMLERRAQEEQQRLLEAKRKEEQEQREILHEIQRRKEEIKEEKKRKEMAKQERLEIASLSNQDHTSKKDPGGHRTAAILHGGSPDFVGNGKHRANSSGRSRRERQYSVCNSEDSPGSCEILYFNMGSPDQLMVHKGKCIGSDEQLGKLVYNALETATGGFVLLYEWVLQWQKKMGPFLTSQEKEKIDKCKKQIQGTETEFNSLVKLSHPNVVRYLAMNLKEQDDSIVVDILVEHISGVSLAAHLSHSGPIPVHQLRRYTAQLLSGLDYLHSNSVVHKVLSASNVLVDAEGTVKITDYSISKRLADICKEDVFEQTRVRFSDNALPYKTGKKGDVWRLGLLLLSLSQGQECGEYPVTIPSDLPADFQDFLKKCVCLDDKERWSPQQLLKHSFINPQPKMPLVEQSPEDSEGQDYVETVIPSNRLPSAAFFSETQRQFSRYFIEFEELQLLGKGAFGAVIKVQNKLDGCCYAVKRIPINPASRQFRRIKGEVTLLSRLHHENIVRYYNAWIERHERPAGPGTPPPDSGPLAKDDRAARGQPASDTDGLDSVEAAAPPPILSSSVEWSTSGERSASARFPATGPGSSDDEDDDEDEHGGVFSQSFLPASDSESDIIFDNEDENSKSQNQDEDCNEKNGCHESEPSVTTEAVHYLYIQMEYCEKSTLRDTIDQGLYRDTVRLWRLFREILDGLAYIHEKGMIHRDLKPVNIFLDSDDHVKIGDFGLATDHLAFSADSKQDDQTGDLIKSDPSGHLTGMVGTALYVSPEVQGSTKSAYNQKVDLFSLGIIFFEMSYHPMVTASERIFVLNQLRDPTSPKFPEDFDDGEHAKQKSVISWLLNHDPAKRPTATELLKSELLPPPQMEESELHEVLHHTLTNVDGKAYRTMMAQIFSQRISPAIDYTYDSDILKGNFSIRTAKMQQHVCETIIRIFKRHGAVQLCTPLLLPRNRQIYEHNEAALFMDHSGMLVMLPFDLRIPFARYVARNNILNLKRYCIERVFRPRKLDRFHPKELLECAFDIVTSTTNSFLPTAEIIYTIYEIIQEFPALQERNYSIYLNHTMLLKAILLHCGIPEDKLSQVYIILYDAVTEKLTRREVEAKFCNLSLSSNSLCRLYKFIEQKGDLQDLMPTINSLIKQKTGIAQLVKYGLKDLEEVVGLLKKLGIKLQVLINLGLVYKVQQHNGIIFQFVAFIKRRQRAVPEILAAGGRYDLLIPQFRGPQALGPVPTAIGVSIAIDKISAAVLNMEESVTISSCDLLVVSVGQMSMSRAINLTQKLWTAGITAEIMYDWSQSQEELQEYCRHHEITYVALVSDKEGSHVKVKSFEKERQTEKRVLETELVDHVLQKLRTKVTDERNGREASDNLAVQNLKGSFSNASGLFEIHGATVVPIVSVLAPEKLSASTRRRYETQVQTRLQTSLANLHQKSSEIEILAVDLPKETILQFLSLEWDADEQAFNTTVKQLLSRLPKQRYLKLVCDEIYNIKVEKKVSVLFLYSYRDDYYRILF

[12] = molecular target: Serine/threonine-protein kinase 10 (Homo sapiens) (UniProt O94804); experiment: Inhibition of LOK Lys2 labeling site in human A-375 cells at 5 uM by KiNativ Profiling analysis relative to control; assay type: cell-based
Chain of Serine/threonine-protein kinase 10 (Homo sapiens) (O94804 whole entry, looked up): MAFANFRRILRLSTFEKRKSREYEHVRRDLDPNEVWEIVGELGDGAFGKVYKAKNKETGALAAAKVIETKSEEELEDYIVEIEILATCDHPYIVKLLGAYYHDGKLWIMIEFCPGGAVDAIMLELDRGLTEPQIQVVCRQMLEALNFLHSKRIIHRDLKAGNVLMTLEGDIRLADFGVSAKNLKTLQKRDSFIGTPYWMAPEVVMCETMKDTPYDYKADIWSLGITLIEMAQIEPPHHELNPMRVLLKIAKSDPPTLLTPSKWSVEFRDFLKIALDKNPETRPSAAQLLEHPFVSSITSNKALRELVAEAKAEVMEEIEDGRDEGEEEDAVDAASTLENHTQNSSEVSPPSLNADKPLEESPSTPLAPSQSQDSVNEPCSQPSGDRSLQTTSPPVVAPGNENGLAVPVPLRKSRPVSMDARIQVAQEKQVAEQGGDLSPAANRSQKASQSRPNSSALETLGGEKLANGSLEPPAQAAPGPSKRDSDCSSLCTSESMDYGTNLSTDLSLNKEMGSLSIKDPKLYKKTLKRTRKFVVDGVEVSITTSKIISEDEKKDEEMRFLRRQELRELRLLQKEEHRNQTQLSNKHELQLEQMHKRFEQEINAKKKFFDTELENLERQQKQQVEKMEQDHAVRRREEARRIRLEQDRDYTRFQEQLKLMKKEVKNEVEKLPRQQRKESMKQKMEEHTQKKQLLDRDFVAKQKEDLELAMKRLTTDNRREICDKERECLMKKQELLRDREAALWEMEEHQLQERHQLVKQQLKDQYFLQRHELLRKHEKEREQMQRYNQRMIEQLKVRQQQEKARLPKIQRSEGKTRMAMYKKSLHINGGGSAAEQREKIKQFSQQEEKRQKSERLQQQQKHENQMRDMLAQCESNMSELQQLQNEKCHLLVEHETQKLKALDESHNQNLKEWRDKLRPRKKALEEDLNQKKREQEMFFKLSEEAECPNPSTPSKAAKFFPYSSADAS

[13] = molecular target: Dual specificity tyrosine-phosphorylation-regulated kinase 2 (Homo sapiens) (UniProt Q92630); experiment: Inhibition of DYRK2 (unknown origin) at 1 uM by Ambit Kinomescan binding assay relative to control; values are per cent of control

Work on `CNc1cc(Oc2cc(C(=O)Nc3cc(N4CCN(C)CC4)cc(C(F)(F)F)c3)ccc2C)ncn1` yielded an inhibition [1] of 8.7%, an inhibition [2] of 16% and an inhibition [3] of 12%. For the same compound, the inhibition [4] was -1.5%.

For `CCN1CCN(Cc2ccc(NC(=O)c3ccc(C)c(Oc4ccnc5[nH]ccc45)c3)cc2C(F)(F)F)CC1`, the inhibition [5] was 98.1%, the % of control [6] was 0.1% and the inhibition [7] was 13.7%. The inhibition [8] was greater than 95%, the inhibition (MEF) was “Dose-Dependent Effect” and the residual activity [9] was 6.2%.

For `CCN1CCN(Cc2ccc(NC(=O)c3ccc(C)c(/C=C/c4cnc5[nH]ccc5c4OC)c3)cc2C(F)(F)F)CC1`, the inhibition [10] was 3.4%, the inhibition [11] was -0.9% and the inhibition [12] was 77.4%. It also gave a residual activity [13] of 68%.
